Converted amounts (≈) assume the structure as drawn. Read-outs that look alike come from different tables or passages of the source. Where a SMILES comes first, the peptide text is derived from it. Bridges are numbered along the chain shown (N, C = ends). [ ]: non-standard residue; d: D form. The star is where a group is joined. Ileψ(thiazoline)Cys = CC[C@H](C)[C@H](N)C1=N[C@H](C(=O)*)CS1; dOrn = NCCC[C@@H](N)C(=O)O
Experiments:
[1] = system: culture A84575; assay: Resistance of culture A84575 to antibiotics (antibiotic sensitivity discs, ISP No. 2 agar); type: cell-based, Streptosporangium carneum; conditions: disc
Method: Resistance to antibiotics was measured by padding antibiotic sensitivity discs (Difco) onto the surface of seeded ISP No. 2 agar plates. Resistance was scored as (+) when no zone of inhibition was observed, and as (-) when a zone of inhibition was observed.

[2] = system: Staphylococcus aureus; assay: In vitro antibacterial activity (Table 5), MIC; type: cell-based
[3] = system: Streptococcus pneumoniae; assay: In vitro antibacterial activity (Table 5), MIC; type: cell-based, S. pneumoniae; conditions: strain PARK
[4] = system: Staphylococcus epidermidis; assay: In vitro antibacterial activity (Table 5), MIC; type: cell-based, S. epidermidis
[5] = system: Streptococcus A; assay: In vitro antibacterial activity (Table 5), MIC; type: cell-based; conditions: strain C203
[6] = system: Haemophilus influenzae; assay: In vitro antibacterial activity (Table 5), MIC; type: cell-based
[7] = system: Streptococcus D; assay: In vitro antibacterial activity (Table 5), MIC; type: cell-based
[8] = system: culture A84575; assay: Resistance of culture A84575 to antibiotics (antibiotic sensitivity discs, ISP No. 2 agar); type: cell-based, Streptosporangium carneum; conditions: 50 μg/mL

Molecule: CO[C@H]1C[C@H](O[C@H]2[C@H](C)[C@@H](O[C@@H]3O[C@H](C)C[C@H](N(C)C)[C@H]3O)[C@@H](C)C[C@@]3(CO3)C(=O)[C@H](C)[C@@H](O)[C@@H](C)[C@@H](C)OC(=O)[C@@H]2C)O[C@@H](C)[C@@H]1O [oleandomycin]
- Resistance to antibiotics ([1]; 15 μm): sensitive

Molecule: CCC[C@@H]1C[C@@H](C(=O)N[C@@H]([C@H]2O[C@H](SC)[C@H](O)[C@@H](O)[C@H]2O)[C@@H](C)O)N(C)C1 [lincomycin]
- Resistance to antibiotics ([1]; 2 μm): resistant

Molecule: CO[C@H]1/C=C/O[C@@]2(C)Oc3c(C)c(O)c4c(O)c(c(/C=N/N5CCN(C)CC5)c(O)c4c3C2=O)NC(=O)/C(C)=C\C=C\[C@H](C)[C@H](O)[C@@H](C)[C@@H](O)[C@@H](C)[C@H](OC(C)=O)[C@@H]1C [rifampin]
- Resistance to antibiotics ([1]; 5 μm): sensitive

Molecule: CO/N=C(\C(=O)N[C@@H]1C(=O)N2C(C(=O)O)=C(COC(C)=O)CS[C@H]12)c1csc(N)n1 [Standard]
- MIC [2]: 16 µg/mL (≈ 35.1 µM)
- MIC ([2]; strain U41, read-out: MIC): 4 µg/mL (≈ 8.78 µM)
- MIC ([2]; strain X1.1, read-out: MIC): 2 µg/mL (≈ 4.39 µM)
- MIC ([2]; strain X400, read-out: MIC): 128 µg/mL (≈ 281 µM)
- MIC [3]: 0.015 µg/mL (≈ 0.0329 µM)
- MIC ([4]; strain 222): 2 µg/mL (≈ 4.39 µM)
- MIC ([4]; strain 270): 8 µg/mL (≈ 17.6 µM)
- MIC [5]: 0.015 µg/mL (≈ 0.0329 µM)
- MIC ([6]; Haemophilus influenzae, strain C.L., sensitive strain, read-out: MIC): 0.015 µg/mL (≈ 0.0329 µM)
- MIC ([6]; strain 76, resistant strain): .015 µg/mL (≈ 0.0329 µM)
- MIC ([7]; strain 2041): 128 µg/mL (≈ 281 µM)
- MIC ([7]; strain X66): > 128 µg/mL

Molecule: CC[C@H](C)[C@H](N)C1=N[C@H](C(=O)N[C@@H](CC(C)C)C(=O)N[C@H](CCC(=O)O)C(=O)N[C@H](C(=O)N[C@H]2CCCCNC(=O)[C@H](CC(N)=O)NC(=O)[C@@H](CC(=O)O)NC(=O)[C@H](Cc3cnc[nH]3)NC(=O)[C@@H](Cc3ccccc3)NC(=O)[C@H]([C@@H](C)CC)NC(=O)[C@@H](CCCN)NC2=O)[C@@H](C)CC)CS1 [bacitracin] ({Ileψ(thiazoline)Cys}-L[dE]IK[dOrn]I[dF]H[dD]N; lactam 4-C)
- Resistance to antibiotics ([1]; 10 units): resistant

Molecule: CC1(C)S[C@@H]2[C@H](NC(=O)Cc3ccccc3)C(=O)N2[C@H]1C(=O)O [penicillin G]
- Resistance to antibiotics ([1]; 10 units): resistant

Molecule: lysozyme
- Sensitivity to lysozyme [8]: sensitive
